Data published in patent publication US3982012A, “4-Hydroxy-benzimidazole compounds and therapeutic compositions” (Boehringer Mannheim G.m.b.H., priority 1974, dated 1976).

Legend:
cardiac β-receptor = cardiac β-receptor blocking activity: inhibition of isoprenalin tachycardia in wake rabbits; details: for Heartbeat Frequency x ± sx / DE250: wake rabbits; for Heartbeat Frequency x ± sx: 30 min later isoprenalin i.v.; for DE250: interpolated dosage which limits the frequency increase to 250 beats/min; for LD50/DE250: ratio of mouse i.v. LD50 to rabbit i.v. DE250 (therapeutic breadth)
Procedure: (§1) The following tests were carried out to determine (a) the toxicity and (b) the cardiac β-receptor blocking activity of certain test compounds by determining the inhibition of the heart beat frequency increase induced by intravenous administration of isoprenalin.
b. The β-receptor blocking activity of the test compounds was tested on wake rabbits weighing between 2 to 3.5 kg. and kept in wooden cages. EKG-electrodes were inserted into the hind quarters of the rabbits s.c. (II. lead) and the heart frequency was measured using an integrator (15 seconds) as a digital value. The test compounds were then infused through a small tube to the ear vein of the rabbits over a period of 15 minutes. 30 Minutes after the infusion isoprenalin (3,4-dihydroxy-α-[(isopropylamino)-methyl]-benzylalcohol) was injected intravenously at […].

in vivo = details: iv, mouse, i.v. (tail vein), five male and five female mice per dosage, read-out: Acute Toxicity LD50 Mouse
Procedure: as §1
a. […] The compounds, in dissolved form, were injected into the tail vein of five male and five female mice each in increasing dosages. The results (% of animals which died) were used, via programmed probability analysis, to determine the median lethal dosage (LD50).

Row | Structure (SMILES) | Heartbeat Frequency x ± sx (cardiac β-receptor; 0.01 mg/kg i.v. infusion) [beats/min] | Heartbeat Frequency x ± sx (cardiac β-receptor; 0.1 mg/kg i.v. infusion) [beats/min] | Heartbeat Frequency x ± sx (cardiac β-receptor; 0.25 mg/kg i.v. infusion) [beats/min] | Heartbeat Frequency x ± sx (cardiac β-receptor; 0.5 mg/kg i.v. infusion) [beats/min] | Heartbeat Frequency x ± sx (cardiac β-receptor; 1.0 mg/kg i.v. infusion) [beats/min] | Heartbeat Frequency x ± sx (cardiac β-receptor; 4.0 mg/kg i.v. infusion) [beats/min] | DE250 (cardiac β-receptor) [mg/kg i.v.] | LD50 (in vivo) [mg/kg] | LD50/DE250 (cardiac β-receptor) | Heartbeat Frequency x ± sx (cardiac β-receptor; 0.05 mg/kg i.v. infusion) [beats/min] | Heartbeat Frequency x ± sx (cardiac β-receptor; 5.0 mg/kg i.v. infusion) [beats/min] | Heartbeat Frequency x ± sx (cardiac β-receptor; 2.0 mg/kg i.v. infusion) [beats/min] | Heartbeat Frequency x ± sx (cardiac β-receptor; 10.0 mg/kg i.v. infusion) [beats/min] | Heartbeat Frequency x ± sx (cardiac β-receptor; 20.0 mg/kg i.v. infusion) [beats/min]
1 | CC(C)NCC(O)COc1cccc2ccccc12 (stereo not drawn) [Compound B, 1-Isopropylamino-3-(1-naphthoxy)-2-propanol, reference compound] | 342 ± 5 | 309 ± 9 | 259 ± 7 | 248 ± 6 | 210 ± 8 | 191 ± 6 | 0.400 | – | – | – | – | – | – | –
2 | Cc1nc2cccc(OCC(O)CNC(C)C)c2[nH]1 (stereo not drawn) [Compound III, 2-Methyl-4-(3-isopropylamino-2-hydroxy-propyloxy)-benzimidazole] | 303 ± 17 | 255 ± 9 | – | – | 234 ± 11 | – | 0.17 | 29 | 170 | 318 ± 11 | 219 ± 14 | – | – | –
3 | CC(C)NCC(O)COc1cccc2nc[nH]c12 (stereo not drawn) [Compound I, 4-(3-Isopropylamino-2-hydroxy-propyloxy)-benzimidazole] | 300 ± 11 | 239 ± 6 | – | 228 ± 5 | 218 ± 11 | – | 0.09 | 38 | 422 | 292 ± 17 | 219 ± 13 | – | – | –
4 | CC(=O)Nc1ccc(OCC(O)CNC(C)C)cc1 (stereo not drawn) [Compound A, 4-(2-Hydroxy-3-isopropylamino-propoxy)-acetanilide, reference compound] | – | – | – | 307 ± 7 | 264 ± 9 | – | 2.5 | – | 28 | – | 246 ± 7 | 250 ± 4 | 217 ± 4 | 225 ± 6
5 | Cc1nc2cccc(OCC(O)CNC(C)(C)C)c2[nH]1 (stereo not drawn) [Compound IV, 2-Methyl-4-(3-tert.-butylamino-2-hydroxy-propyloxy)-benzimidazole] | 289 ± 18 | 248 ± 7 | – | 224 ± 8 | 211 ± 5 | – | 0.08 | 34 | 425 | 255 ± 7 | 232 ± 5 | – | – | –
6 | CC(C)(C)NCC(O)COc1cccc2nc[nH]c12 (stereo not drawn) [Compound II, 4-(3-tert.-Butylamino-2-hydroxy-propyloxy)-benzimidazole] | 286 ± 12 | 236 ± 6 | – | – | 244 ± 9 | – | 0.05 | 28 | 560 | – | 273 ± 11 | – | – | –
